Entries after “also recorded” stand apart in the source; their conditions may differ.
Test system: microorganisms (e.g., bacteria, yeasts, fungi)
Experiment: Targeting peptide binding to target microorganisms (Table 3)
Details: microorganism(s) the targeting peptide binds; binding in aqueous buffers depending on peptide solubility, preferably 1x PBS

| Substance | Target(s) |
| --- | --- |
| PF-169 (APGSAADSPRSRADD; Peptide with targeting and/or antimicrobial activity) | S. epidermidis; also recorded: E. coli; also recorded: C. albicans; also recorded: E. faecalis; also recorded: C. jeikeium |
| PF-172 (LTGVRRPWRAPWAGTSGWALR; Peptide with targeting and/or antimicrobial activity) | S. epidermidis and M. luteus and E. coli and P. aeruginosa and MRSA and E. faecalis and C. jejuni |
| PF-174 (RGGDSPARRRPGLAGPGGPG; Peptide with targeting and/or antimicrobial activity) | S. epidermidis; also recorded: P. aeruginosa; also recorded: C. jeikeium |
| PF-177 (VTSEPGIAHDIRLLPRAAAFR; Peptide with targeting and/or antimicrobial activity) | M. luteus and MRSA and E. faecalis and C. jeikeium |
| PF-181 (GIAPRRNEWGAVGGR; Peptide with targeting and/or antimicrobial activity) | S. epidermidis and M. luteus and E. coli and MRSA and E. faecalis and C. jeikeium |
| PF-182 (LPATRDKTRVPASVAGAP; Peptide with targeting and/or antimicrobial activity) | S. epidermidis; also recorded: M. luteus; also recorded: E. coli; also recorded: E. faecalis; also recorded: C. jeikeium |
| PF-183 (KPGISVENRQ; Peptide with targeting and/or antimicrobial activity) | S. epidermidis and M. luteus and E. coli and C. albicans and MRSA and E. faecalis and C. jeikeium |
| PF-184 (LIADRHIRA; Peptide with targeting and/or antimicrobial activity) | S. epidermidis and M. luteus and E. coli and P. aeruginosa and C. albicans and MRSA and C. jeikeium |
| PF-185 (RPAQARQGPGGLIADRHIRA; Peptide with targeting and/or antimicrobial activity) | E. coli; also recorded: P. aeruginosa |
| PF-187 (EIQKIAKGVSGQVYGPSRQITISKKR; Peptide with targeting and/or antimicrobial activity) | S. epidermidis and M. luteus and E. coli and MRSA |
| PF-189 (GNLTRSREAARATQ; Peptide with targeting and/or antimicrobial activity) | S. epidermidis and M. luteus and C. albicans and MRSA and E. faecalis and C. jejuni |
| PF-193 (PPHCPPGHAKKGWC; Peptide with targeting and/or antimicrobial activity) | S. epidermidis and M. luteus and E. coli and MRSA and E. faecalis and C. jejuni |
| PF-194 (MKGNKLATAHEQPVKNSAPPL; Peptide with targeting and/or antimicrobial activity) | C. jeikeium |
| PF-195 (EMAEGSADDRLRKTPRDC; Peptide with targeting and/or antimicrobial activity) | S. epidermidis; also recorded: M. luteus; also recorded: E. faecalis; also recorded: C. jeikeium |
| PF-197 (CNALLRRGHPPSAL; Peptide with targeting and/or antimicrobial activity) | S. epidermidis; also recorded: M. luteus; also recorded: C. albicans; also recorded: E. faecalis; also recorded: C. jejuni |
| PF-200 (GIELKSLIMAQIERWRQA; Peptide with targeting and/or antimicrobial activity) | S. epidermidis and M. luteus and MRSA and E. faecalis and C. jeikeium |
| PF-201 (GCRPASLSDADPDGR; Peptide with targeting and/or antimicrobial activity) | S. epidermidis; also recorded: M. luteus; also recorded: E. coli; also recorded: C. albicans; also recorded: E. faecalis; also recorded: C. jeikeium; also recorded: C. jejuni |
| PF-202 (ALNRASLRLALGE; Peptide with targeting and/or antimicrobial activity) | S. epidermidis and M. luteus and E. coli and MRSA and E. faecalis and C. jeikeium and C. jejuni |
| PF-206 (KLRSASKKSLQEKSCGIMPEKPAG; Peptide with targeting and/or antimicrobial activity) | M. luteus; also recorded: C. albicans; also recorded: C. jeikeium; also recorded: C. jejuni |
| PF-207 (AAGCRDLGSLSSLVTNPS; Peptide with targeting and/or antimicrobial activity) | M. luteus; also recorded: C. jeikeium |
| PF-210 (EREDGCDAMPLP; Peptide with targeting and/or antimicrobial activity) | S. epidermidis and P. aeruginosa and C. albicans and MRSA and E. faecalis and C. jeikeium and C. jejuni |
| PF-213 (MTTGVDFIIEKV; Peptide with targeting and/or antimicrobial activity) | S. epidermidis |
| PF-214 (GHLRVCWVFSASLLTPFRSATLI; Peptide with targeting and/or antimicrobial activity) | S. mutans; also recorded: S. epidermidis; also recorded: M. luteus; also recorded: E. coli; also recorded: P. aeruginosa; also recorded: A. baumannii |
| PF-216 (ESVDKITEALEEDGFPAKVQ; Peptide with targeting and/or antimicrobial activity) | S. mutans; also recorded: E. coli |
| PF-217 (DWEFTHKTIPQKK; Peptide with targeting and/or antimicrobial activity) | S. mutans |

| Substance | Target(s) |
| --- | --- |
| PF-218 (SETPEKPVGTFFYSIYYKIIL; Peptide with targeting and/or antimicrobial activity) | S. epidermidis; also recorded: M. luteus; also recorded: P. aeruginosa; also recorded: A. baumannii |
| PF-219 (FLALAVIAGLFKVILIYAAPYLK; Peptide with targeting and/or antimicrobial activity) | S. epidermidis; also recorded: M. luteus; also recorded: P. aeruginosa; also recorded: A. baumannii |
| PF-221 (VFDNIDINF; Peptide with targeting and/or antimicrobial activity) | S. epidermidis; also recorded: M. luteus; also recorded: P. aeruginosa |
| PF-223 (VKFCIECQTKLERKRR; Peptide with targeting and/or antimicrobial activity) | S. epidermidis; also recorded: M. luteus; also recorded: A. baumannii |
| PF-225 (MNCASPEFKKLMELYK; Peptide with targeting and/or antimicrobial activity) | S. epidermidis |
| PF-228 (NQLGSQAFAQL; Peptide with targeting and/or antimicrobial activity) | S. mutans |
| PF-229 (DPILIQIGFTRFALRKAEAEKIEIQVEEGVPA; Peptide with targeting and/or antimicrobial activity) | S. epidermidis; also recorded: M. luteus; also recorded: P. aeruginosa; also recorded: A. baumannii |
| PF-230 (EDKPTNTIQEIKPVKWQ; Peptide with targeting and/or antimicrobial activity) | S. mutans |
| PF-231 (AVRDFKKSVREEDEAASLNSPRTIDAQVKTSESTSVKS; Peptide with targeting and/or antimicrobial activity) | S. mutans |
| PF-232 (FDQLYALEREGKLDELLA; Peptide with targeting and/or antimicrobial activity) | S. epidermidis; also recorded: M. luteus |
| PF-236 (KEIRTATVAELNAKRRLTSAEQALAEVS; Peptide with targeting and/or antimicrobial activity) | S. mutans; also recorded: S. epidermidis; also recorded: E. coli; also recorded: C. albicans; also recorded: S. pneumoniae; also recorded: E. faecalis |
| PF-237 (YVKPKVGVHE; Peptide with targeting and/or antimicrobial activity) | S. epidermidis |
| PF-238 (RNAVVVTEATFPKYEEEITNYLNRRFGEDWSLKLEKCSVA; Peptide with targeting and/or antimicrobial activity) | S. mutans and S. epidermidis and E. coli and P. aeruginosa and C. albicans and MRSA and S. pneumoniae and E. faecalis |
| PF-239 (PKHNVVTGVSVDLDYKP; Peptide with targeting and/or antimicrobial activity) | S. mutans; also recorded: E. coli |
| PF-240 (RITEVPPDEHSDR; Peptide with targeting and/or antimicrobial activity) | S. mutans; also recorded: E. coli |
| PF-242 (KLFEDPLIKSKAVENFQTTWHEQCLAKELAKNM; Peptide with targeting and/or antimicrobial activity) | S. mutans; also recorded: E. coli |
| PF-244 (HMRTISYLLAFAKFSLFIPPKQSLKRL; Peptide with targeting and/or antimicrobial activity) | S. epidermidis; also recorded: M. luteus; also recorded: P. aeruginosa; also recorded: A. baumannii |
| PF-245 (MNDVKPVVQPKQTLKAFLVQLLSVRAGVYIKQNNQLPKTKG; Peptide with targeting and/or antimicrobial activity) | S. epidermidis; also recorded: M. luteus; also recorded: P. aeruginosa; also recorded: A. baumannii |
| PF-246 (QPDEKAEFFDPSLDKVYRHPTFYHIPDGIEHM; Peptide with targeting and/or antimicrobial activity) | S. mutans |
| PF-247 (ETAASETH; Peptide with targeting and/or antimicrobial activity) | S. epidermidis |
| PF-248 (ILSKLWFWMINSLGVVLLVSYWLLAKWGVA; Peptide with targeting and/or antimicrobial activity) | S. mutans; also recorded: S. epidermidis; also recorded: M. luteus; also recorded: E. coli; also recorded: P. aeruginosa; also recorded: A. baumannii |
| PF-253 (VRDDDS; Peptide with targeting and/or antimicrobial activity) | S. epidermidis; also recorded: M. luteus |
| PF-254 (FIYGVGFVPHFWLWKWLFSPWIAWPLMLLGYYIWFLT; Peptide with targeting and/or antimicrobial activity) | S. epidermidis; also recorded: M. luteus; also recorded: P. aeruginosa; also recorded: A. baumannii |
| PF-256 (EYFKQVYVKNEKIYSFWICKDLSPKEAAKRAEDILVKLK; Peptide with targeting and/or antimicrobial activity) | S. epidermidis |
